Paper PMC3692398 (Biochemical pharmacology, 2013)
Read-outs that look alike come from different tables or passages of the source.

Tests used:
human DA D1 receptor = human DA D1 receptor (Homo sapiens, UniProt P21728); test: [3H]SCH23390 binding, LhD1 cells; conditions: test drugs up to the maximal concentration tested (10 µM)
h5-HT2C receptor [1] = molecular target: T1, h5-HT2C receptor (Homo sapiens, UniProt P28335); test: Inhibition of 5-HT-stimulated IP-1 formation; type: cell-based
T1 sequence (P28335 33-458): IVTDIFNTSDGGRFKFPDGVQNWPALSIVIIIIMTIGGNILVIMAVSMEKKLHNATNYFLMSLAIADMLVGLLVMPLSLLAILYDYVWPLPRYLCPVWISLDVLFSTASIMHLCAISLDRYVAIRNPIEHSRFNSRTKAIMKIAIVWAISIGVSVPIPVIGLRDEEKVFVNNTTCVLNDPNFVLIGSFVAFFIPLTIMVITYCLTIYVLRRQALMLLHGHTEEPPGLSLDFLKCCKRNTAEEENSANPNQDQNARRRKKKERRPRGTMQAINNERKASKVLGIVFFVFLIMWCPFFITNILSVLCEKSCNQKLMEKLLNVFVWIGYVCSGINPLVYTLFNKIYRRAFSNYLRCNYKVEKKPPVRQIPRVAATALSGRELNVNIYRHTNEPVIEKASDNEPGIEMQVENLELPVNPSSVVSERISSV

h5-HT2C receptor [2] = molecular target: T1, h5-HT2C receptor; test: biochemical; type: binding
hVMAT2 [3] = molecular target: T2, hVMAT2 (Homo sapiens, UniProt Q05940); test: Inhibition of [3H]DHTB binding, HEK-hVMAT2 membranes; conditions: read-out: Inhibition of [3H]DHTB binding Ki ± sem, hVMAT2
hVMAT2 [4] = molecular target: T2, hVMAT2; test: Inhibition of [3H]5-HT uptake, HEK-hVMAT2 membrane preparation; type: biochemical; conditions: read-out: Inhibition of [3H]5-HT uptake IC50 ± sem, hVMAT2; 40 nM [3H]5-HT, 2 mM MgATP
hVMAT2 [5] = molecular target: T2, hVMAT2; test: Superfusion release of preloaded [3H]NE from HEK-hVMAT2 cells; type: cell-based
hSigma1 receptor = hSigma1 receptor (Homo sapiens, UniProt Q99720); test: [3H]; type: binding; conditions: read-out: Inhibition of [3H]pentazocine binding Ki ± sem, hSigma1
hSERT [6] = molecular target: T3, hSERT (Homo sapiens, UniProt P31645); test: Inhibition of [3H]5-HT uptake, intact HEK-hSERT cells; type: cell-based
hDAT [7] = molecular target: T4, hDAT (Homo sapiens, UniProt Q01959); test: Inhibition of [3H]DA uptake, intact HEK-hDAT cells; type: cell-based
hDAT [8] = molecular target: T4, hDAT; test: Inhibition of [125I]RTI-55 binding, HEK-hDAT membranes; conditions: read-out: Inhibition of [125I]RTI-55 binding Ki ± sem, hDAT; HEK-hDAT membranes
hSERT [9] = molecular target: T3, hSERT; test: Superfusion release of preloaded [3H]5-HT from HEK-hSERT cells; type: cell-based; conditions: for EC50: read-out: Drug-induced release of [3H]neurotransmitter EC50 ± sem, hSERT [3H]5-HT, superfusion, AUC
hNET [10] = molecular target: T5, hNET (Homo sapiens, UniProt P23975); test: cell-based; type: cell-based
hNET [11] = molecular target: T5, hNET; test: Superfusion release of preloaded [3H]NE from HEK-hNET cells; type: cell-based
hNET [12] = molecular target: T5, hNET; test: biochemical; type: binding; conditions: read-out: Inhibition of [125I]RTI-55 binding Ki ± sem, hNET; HEK-hNET membranes
h5-HT2A receptor [13] = molecular target: T6, h5-HT2A receptor (Homo sapiens, UniProt P28223); test: Inhibition of 5-HT-stimulated IP-1 formation; type: cell-based; conditions: 100 nM 5-HT
h5-HT1A receptor [14] = molecular target: T7, h5-HT1A receptor (Homo sapiens, UniProt P08908); test: [3H]8-OH-DPAT binding, HEK-h5-HT1A; conditions: read-out: Inhibition of radioligand binding Ki ± sem, h5-HT1A [3H]8OH-DPAT
T7 sequence (P08908 1-422): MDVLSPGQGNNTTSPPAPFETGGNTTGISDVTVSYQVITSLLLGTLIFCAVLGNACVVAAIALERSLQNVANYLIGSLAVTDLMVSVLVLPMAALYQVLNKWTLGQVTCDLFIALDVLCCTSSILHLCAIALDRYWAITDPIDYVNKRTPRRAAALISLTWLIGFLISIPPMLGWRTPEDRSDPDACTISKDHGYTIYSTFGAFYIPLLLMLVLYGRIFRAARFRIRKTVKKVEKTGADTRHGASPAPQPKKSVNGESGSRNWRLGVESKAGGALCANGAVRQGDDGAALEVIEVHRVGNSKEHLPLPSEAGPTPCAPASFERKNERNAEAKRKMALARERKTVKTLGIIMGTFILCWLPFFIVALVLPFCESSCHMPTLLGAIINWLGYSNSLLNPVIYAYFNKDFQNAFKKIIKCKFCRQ

[15] = blood from heart, periphery, and femoral veins; postmortem cases; ref [32];[33];[34]; cited from earlier work
hDAT [16] = molecular target: T4, hDAT; test: Superfusion release of preloaded [3H]DA from HEK-hDAT cells; type: cell-based
h5-HT2A receptor [17] = molecular target: T6, h5-HT2A receptor; test: [125I]DOI binding, HEK-h5-HT2A; conditions: read-out: Inhibition of radioligand binding Ki ± sem, h5-HT2A [125I]DOI
h5-HT1A receptor [18] = molecular target: T7, h5-HT1A receptor; test: Stimulation of [35S]GTPγS binding, HEK-h5-HT1A membranes; type: biochemical
[19] = concentrations ranging from 1 nM to 100 µM

T3 sequence (P31645 whole entry): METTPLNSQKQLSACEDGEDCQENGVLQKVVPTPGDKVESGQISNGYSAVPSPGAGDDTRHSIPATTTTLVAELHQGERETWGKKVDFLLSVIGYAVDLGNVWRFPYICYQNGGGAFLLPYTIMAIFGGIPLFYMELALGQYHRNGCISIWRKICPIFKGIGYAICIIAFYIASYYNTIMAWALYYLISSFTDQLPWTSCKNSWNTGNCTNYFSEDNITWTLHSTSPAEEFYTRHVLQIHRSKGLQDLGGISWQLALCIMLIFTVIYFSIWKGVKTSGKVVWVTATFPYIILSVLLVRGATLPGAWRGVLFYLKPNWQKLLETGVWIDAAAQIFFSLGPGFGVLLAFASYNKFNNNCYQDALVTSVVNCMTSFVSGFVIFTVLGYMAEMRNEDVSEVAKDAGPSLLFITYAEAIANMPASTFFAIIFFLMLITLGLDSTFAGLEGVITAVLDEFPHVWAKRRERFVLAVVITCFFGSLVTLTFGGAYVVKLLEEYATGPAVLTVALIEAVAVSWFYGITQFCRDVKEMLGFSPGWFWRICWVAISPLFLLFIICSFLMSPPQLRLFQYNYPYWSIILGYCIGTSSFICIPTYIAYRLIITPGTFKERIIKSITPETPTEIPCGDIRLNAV
T5 sequence (P23975 whole entry, the tested form may be a part): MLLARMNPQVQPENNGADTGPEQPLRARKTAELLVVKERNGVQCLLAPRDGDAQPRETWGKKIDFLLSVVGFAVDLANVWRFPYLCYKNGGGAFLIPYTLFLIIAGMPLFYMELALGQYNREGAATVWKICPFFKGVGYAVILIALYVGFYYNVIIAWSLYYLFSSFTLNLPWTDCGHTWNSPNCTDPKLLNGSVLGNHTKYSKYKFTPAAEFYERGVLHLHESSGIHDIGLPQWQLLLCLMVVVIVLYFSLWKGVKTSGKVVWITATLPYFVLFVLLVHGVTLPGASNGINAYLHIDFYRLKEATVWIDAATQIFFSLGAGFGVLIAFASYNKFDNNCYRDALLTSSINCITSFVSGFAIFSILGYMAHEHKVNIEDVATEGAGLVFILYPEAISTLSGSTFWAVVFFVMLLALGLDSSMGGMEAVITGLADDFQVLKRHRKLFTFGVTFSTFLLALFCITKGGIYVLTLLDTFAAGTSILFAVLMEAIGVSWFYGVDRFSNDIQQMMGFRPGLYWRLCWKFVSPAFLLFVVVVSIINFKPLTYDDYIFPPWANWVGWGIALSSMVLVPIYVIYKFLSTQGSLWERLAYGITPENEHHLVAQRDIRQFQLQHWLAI
T6 sequence (P28223 whole entry): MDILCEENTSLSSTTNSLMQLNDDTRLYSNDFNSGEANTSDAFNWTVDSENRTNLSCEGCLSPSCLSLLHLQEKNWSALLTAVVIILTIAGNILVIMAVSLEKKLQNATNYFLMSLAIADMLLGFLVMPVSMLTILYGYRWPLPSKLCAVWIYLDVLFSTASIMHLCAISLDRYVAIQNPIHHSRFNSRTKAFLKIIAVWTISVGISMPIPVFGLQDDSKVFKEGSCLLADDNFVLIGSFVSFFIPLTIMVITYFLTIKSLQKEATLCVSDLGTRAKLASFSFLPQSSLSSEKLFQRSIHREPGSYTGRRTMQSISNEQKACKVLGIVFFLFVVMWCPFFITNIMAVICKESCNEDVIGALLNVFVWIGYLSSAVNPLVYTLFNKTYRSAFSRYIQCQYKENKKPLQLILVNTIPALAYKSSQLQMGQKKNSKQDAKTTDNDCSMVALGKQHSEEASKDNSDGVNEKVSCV
T4 sequence (Q01959 whole entry): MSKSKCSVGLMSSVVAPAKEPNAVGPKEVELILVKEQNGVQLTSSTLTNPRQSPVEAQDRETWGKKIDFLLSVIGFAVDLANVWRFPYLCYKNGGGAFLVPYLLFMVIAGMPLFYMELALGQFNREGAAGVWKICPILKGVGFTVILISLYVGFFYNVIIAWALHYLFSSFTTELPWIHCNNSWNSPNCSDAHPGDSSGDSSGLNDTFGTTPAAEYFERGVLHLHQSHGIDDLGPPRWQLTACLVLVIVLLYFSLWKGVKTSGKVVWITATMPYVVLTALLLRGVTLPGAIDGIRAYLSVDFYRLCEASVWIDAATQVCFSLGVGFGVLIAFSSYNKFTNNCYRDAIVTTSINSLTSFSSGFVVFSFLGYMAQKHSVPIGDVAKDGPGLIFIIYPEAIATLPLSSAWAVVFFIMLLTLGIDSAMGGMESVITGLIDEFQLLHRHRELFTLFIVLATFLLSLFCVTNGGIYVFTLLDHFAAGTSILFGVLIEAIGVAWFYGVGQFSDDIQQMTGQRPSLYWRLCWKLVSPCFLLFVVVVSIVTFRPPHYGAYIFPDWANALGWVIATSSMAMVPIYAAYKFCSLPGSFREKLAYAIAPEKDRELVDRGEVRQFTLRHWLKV
T2 sequence (Q05940 whole entry): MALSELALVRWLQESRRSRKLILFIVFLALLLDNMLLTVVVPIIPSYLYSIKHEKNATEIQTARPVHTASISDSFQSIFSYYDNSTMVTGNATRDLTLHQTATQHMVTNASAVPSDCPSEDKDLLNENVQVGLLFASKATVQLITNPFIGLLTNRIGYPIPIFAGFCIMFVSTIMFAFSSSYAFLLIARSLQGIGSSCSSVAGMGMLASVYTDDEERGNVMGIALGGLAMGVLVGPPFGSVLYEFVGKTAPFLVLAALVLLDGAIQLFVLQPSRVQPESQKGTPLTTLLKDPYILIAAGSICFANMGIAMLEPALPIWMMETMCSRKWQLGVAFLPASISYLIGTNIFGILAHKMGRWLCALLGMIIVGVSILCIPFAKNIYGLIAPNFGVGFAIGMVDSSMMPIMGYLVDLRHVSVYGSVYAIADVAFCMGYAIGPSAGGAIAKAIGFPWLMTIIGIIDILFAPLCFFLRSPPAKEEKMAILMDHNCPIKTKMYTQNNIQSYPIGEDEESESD
Sequence of hSigma1 receptor (Q99720 whole entry): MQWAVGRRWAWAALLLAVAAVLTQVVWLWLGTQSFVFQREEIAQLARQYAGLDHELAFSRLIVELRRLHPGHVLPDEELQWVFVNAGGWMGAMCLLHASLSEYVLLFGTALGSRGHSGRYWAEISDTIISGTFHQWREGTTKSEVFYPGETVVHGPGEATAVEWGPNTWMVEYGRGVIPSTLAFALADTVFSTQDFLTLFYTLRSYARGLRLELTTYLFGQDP
Sequence of human DA D1 receptor (P21728 whole entry): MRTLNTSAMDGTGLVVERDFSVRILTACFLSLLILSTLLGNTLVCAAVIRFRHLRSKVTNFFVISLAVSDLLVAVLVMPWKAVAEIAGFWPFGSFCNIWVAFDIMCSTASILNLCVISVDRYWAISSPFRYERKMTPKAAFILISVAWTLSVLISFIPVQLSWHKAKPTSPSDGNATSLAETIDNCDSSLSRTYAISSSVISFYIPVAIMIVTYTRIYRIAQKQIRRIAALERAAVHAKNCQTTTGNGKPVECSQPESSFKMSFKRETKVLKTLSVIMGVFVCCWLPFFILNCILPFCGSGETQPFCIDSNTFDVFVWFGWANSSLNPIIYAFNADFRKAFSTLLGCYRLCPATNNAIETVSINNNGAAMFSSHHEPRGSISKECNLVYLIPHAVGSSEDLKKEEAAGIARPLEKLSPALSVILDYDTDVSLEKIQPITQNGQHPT

Structure (SMILES): Oc1cc2c(cc1O)C(c1ccccc1)CNCC2 (stereo not shown) [SKF38393]
- affinity for the [3H]SCH23390 binding site, DA D1 receptor (human DA D1 receptor): high affinity

Structure (SMILES): Cc1cc2c(cc1Cl)N(C(=O)Nc1ccc(Oc3cccnc3C)nc1)CC2 [SB242084, reference compound]
- IC50 (h5-HT2C receptor [1]): 0.00028 ± 0.00012 µM
- Ki (h5-HT2C receptor [2]): 0.00247 µM

Structure (SMILES): CCC1(O)CC2c3cc(OC)c(OC)cc3CCN2CC1CC(C)C [RO4-1284, (2R,2S,11bs)-2-ethyl-3-isobutyl-9,10-dimethoxy-2,2,4,6,7,11b-hexahydro-1H-pyrido[2,1-a]isoquinolin-2-ol, reference compound]
- Ki (hVMAT2 [3]): 0.15 ± 0.015 µM
- IC50 (hVMAT2 [4]): 0.098 ± 0.032 µM

Structure (SMILES): CCCC(C(=O)c1ccc2c(c1)OCO2)N1CCCC1 (stereo not shown) [MDPV, 3,4-methylenedioxypyrovalerone]
- Release of [3H]NE % maximum release ± sem or range, hVMAT2 (hVMAT2 [5]): 35.8 ± 9.6%
- EC50 (hVMAT2 [5]; read-out: Drug-induced release of [3H]NE EC50 ± sem, hVMAT2, superfusion): 148 ± 84 µM
- h5-HT2C Inhibition of 5-HT-stimulated IP-1 formation % maximum inhibition ± sem (h5-HT2C receptor [1]; 100 nM 5-HT, normalized to maximal inhibition by SB242084 (1 µM)): 24.5 ± 8.4%
- Ki (hSigma1 receptor): 4.4 ± 1.7 µM
- ratio of binding Ki to uptake IC50, hSERT (hSERT [6]; [125I]RTI-55 Ki / [3H]5-HT uptake IC50): less than six
- IC50 (hSERT [6]; read-out: Inhibition of [3H]neurotransmitter uptake IC50 ± sem, hSERT [3H]5-HT, 20 nM [3H]5-HT, intact cells): 1.38 µM
- ratio of binding Ki to uptake IC50, hDAT (hDAT [7]; [125I]RTI-55 Ki / [3H]DA uptake IC50): less than six
- fold less potent at other target proteins than at biogenic amine transporters (hDAT [7]; other target proteins vs biogenic amine transporters): 60–350 fold
- IC50 (hDAT [7]; read-out: Inhibition of [3H]neurotransmitter uptake IC50 ± sem, hDAT [3H]DA, 20 nM [3H]DA, intact cells): 0.0126 ± 0.0024 µM
- Ki (hDAT [8]): 0.0194 ± 0.0032 µM
- Ki (hVMAT2 [3]): 990 ± 270 µM
- releasing efficacy, hSERT [3H]5-HT (hSERT [9]; [19]): minimal releasing efficacy
- EC50 (hSERT [9]): > 100 µM
- % maximum release ± sem, hSERT [3H]5-HT (hSERT [9]; relative to maximal AUC induced by PCA (10 µM)): 6.9 ± 2.1%
- ratio of binding Ki to uptake IC50, hNET (hNET [10]; [125I]RTI-55 Ki / [3H]NE uptake IC50): less than six
- IC50 (hNET [10]; read-out: Inhibition of [3H]neurotransmitter uptake IC50 ± sem, hNET [3H]NE, 20 nM [3H]NE, intact cells): 0.0188 ± 0.0021 µM
- releasing efficacy, hNET [3H]NE (hNET [11]; concentrations ranging from 10 nM to 100 µM): minimal releasing efficacy
- EC50 (hNET [11]; read-out: Drug-induced release of [3H]neurotransmitter EC50 ± sem, hNET [3H]NE, superfusion, AUC): > 100 µM
- % maximum release ± sem, hNET [3H]NE (hNET [11]; relative to maximal AUC induced by METH (0.3 or 1 µM)): 18 ± 15%
- Ki (hNET [12]): 0.107 ± 0.034 µM
- IC50 (hVMAT2 [4]): > 100 µM
- h5-HT2A Inhibition of 5-HT-stimulated IP-1 formation % maximum inhibition ± sem (h5-HT2A receptor [13]; normalized to maximal inhibition by ketanserin (10 µM)): 67.7 ± 5.4%
- IC50 (h5-HT2A receptor [13]; read-out: h5-HT2A Inhibition of 5-HT-stimulated IP-1 formation IC50 ± sem): 270 ± 86 µM
- Ki (h5-HT1A receptor [14]): 14.8 ± 3.8 µM
- postmortem blood concentration [15]: 0.06 to 3.3 mg/L
- postmortem blood concentration (molar) [15]: 0.25 to 14 µM
- Ki (h5-HT2C receptor [2]; read-out: Inhibition of radioligand binding Ki ± sem, h5-HT2C [125I]DOI): 107 ± 30 µM
- % maximum release ± sem, hDAT [3H]DA (hDAT [16]): 4.8 ± 5.3%
- releasing efficacy, hDAT [3H]DA (hDAT [16]; [19]): minimal releasing efficacy
- EC50 (hDAT [16]; read-out: Drug-induced release of [3H]neurotransmitter EC50 ± sem, hDAT [3H]DA, superfusion, AUC): > 100 µM
- Ki (h5-HT2A receptor [17]): 207 ± 29 µM
- h5-HT1A Stimulation of [35S]GTPγS binding % maximum stimulation ± sem (h5-HT1A receptor [18]; normalized to the maximal stimulation by 5-HT): 69.0 ± 6.7%
- EC50 (h5-HT1A receptor [18]; read-out: h5-HT1A Stimulation of [35S]GTPγS binding EC50 ± sem): 60.8 ± 8.4 µM

Structure (SMILES): CC(N)Cc1ccc(Cl)cc1 (stereo not shown) [PCA, p-chloroamphetamine, reference compound]
- % maximum release ± sem, hSERT [3H]5-HT (hSERT [9]): 106.4 ± 2.0%
- EC50 (hSERT [9]): 0.8 ± 0.27 µM
